The values below are quoted from earlier work in article PMC8778659 (Bioconjugate Chemistry, 2021).

The test system of the data set is LNCaP xenografts. Conditions: 1 h p.i. ref 29.

In the case of `O=C(O)CC[C@H](NC(=O)N[C@@H](CCCCNC(=O)c1ccc(-c2cn(CCOCCOCC[18F])nn2)cc1)C(=O)O)C(=O)O` [[18F]PSMA-MIC01], the specific tumor uptake was 11.7 ± 4.2 %ID/g.
